Experimental data taken from the SangsterLogP compilation.

Columns and labels:
[1] = method code SF-AS, from DOI: 10.1021/jm00326a002, PMID: 14332653
[2] = method code SF, from DOI: 10.1021/jm00326a002, PMID: 14332653
[3] = method code SF-GLC, from DOI: 10.1021/jm00326a002, PMID: 14332653

SMILES	logP [1]	other results
COC(=O)CCCc1ccccc1	2.77	
COC(=O)CCc1ccccc1	2.32	
C#Cc1ccccc1	2.53	
ClCCc1ccccc1	2.95	
N#CCCCc1ccccc1	2.21	
FCCCc1ccccc1	2.95	
COC(=O)CCCCC(C)=O		logP [2]: 0.55
C=CCCC(C)=O	1.02	
COC(=O)Cc1ccccc1	1.83	
c1ccc2ncccc2c1	2.03	
CC(=O)Cc1ccccc1	1.44	
CC(=O)CCC1CC1		logP [3]: 1.5
COC(=O)CCC(C)=O		logP [2]: -0.13
CC(=O)OCCc1ccccc1	2.3	
CN(C)CCCc1ccccc1	2.73	
NC(=O)CCc1ccccc1	0.91	
BrCCCc1ccccc1	3.72	
BrCCc1ccccc1	3.09	
N#CCCc1ccccc1	1.72	
COCCCc1ccccc1	2.7	
NC(=O)CCCc1ccccc1	1.41	
CC(=O)CCCc1ccccc1	2.42	
CCCCSC#N	2.03	
